Test systems include COLO 205 colon; DU-145 prostate; HL-60(TB) leukemia; LOX IMVI melanoma; NCI-H23 lung; OVCAR-5 ovarian; SF-268 CNS; SR leukemia; T-47D breast; UO-31 renal.
Common to all, as to test: growth of human tumour cells (NCI), 48 h

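Cells were grown in 96-well plates and exposed to each compound for 48 hours at five concentrations; endpoints were interpolated linearly between bracketing concentrations, or set to the highest concentration if not reached. GI50 marks 50% less growth. TGI denotes the concentration required for complete inhibition of growth.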 Bounds are passed on as bounds.

In the case of `C=C1C(=O)O[C@H]2[C@H]1CC/C(Cn1cc(CCC)nn1)=C\CC[C@@]1(C)O[C@@H]21`, the GI50 in the assay on COLO 205 colon is 5.22 µM; in the assay on DU-145 prostate, 4.32 µM; in the assay on HL-60(TB) leukemia it was 3.53 µM; with LOX IMVI melanoma, 3.9 µM; in the assay with NCI-H23 lung it was 13.6 µM; with OVCAR-5 ovarian, 14.1 µM. The GI50 was 13.7 µM in the assay on SF-268 CNS, 2.88 µM in the assay with SR leukemia, 4.11 µM in the assay on T-47D breast and 11.1 µM with UO-31 renal. For the same compound, the TGI in the assay with COLO 205 colon was 17.1 µM; in the assay on DU-145 prostate it was 16 µM; in the assay on HL-60(TB) leukemia, 15.3 µM; in the assay with LOX IMVI melanoma, 16.9 µM; in the assay with NCI-H23 lung it was 32 µM; in the assay with OVCAR-5 ovarian, 29.5 µM. Moreover, the TGI in the assay on SF-268 CNS was found to be 28.4 µM; with SR leukemia, 26.1 µM; in the assay on T-47D breast, 21.3 µM; in the assay on UO-31 renal, 24.6 µM.
Take `CSC(=S)N/N=C(\C)c1ccccn1`: the GI50 in the assay with COLO 205 colon is under 0.01 µM; in the assay on DU-145 prostate, 0.465 µM; in the assay with HL-60(TB) leukemia, under 0.0453 µM; with LOX IMVI melanoma, 0.206 µM; in the assay on NCI-H23 lung, 0.119 µM; with OVCAR-5 ovarian, 0.143 µM. In addition, the GI50 was 0.349 µM in the assay with SF-268 CNS, under 0.033 µM in the assay on SR leukemia, under 0.01 µM with T-47D breast and 0.154 µM in the assay on UO-31 renal. Moreover, the TGI in the assay on COLO 205 colon worked out at 11.9 µM; in the assay with DU-145 prostate it was 12.2 µM; in the assay on HL-60(TB) leukemia it was 0.18 µM; with LOX IMVI melanoma, 12.6 µM; in the assay on NCI-H23 lung, 26.5 µM; with OVCAR-5 ovarian, 22.2 µM. The TGI with SF-268 CNS came to 14.5 µM; with SR leukemia it was 6.46 µM; with T-47D breast it was 15.2 µM; in the assay with UO-31 renal it was 11.8 µM.
Regarding `COc1ccc(-n2c(N)c(C(=O)NCCN3CCOCC3)c3nc4ccccc4nc32)cc1OC`, the GI50 in the assay with COLO 205 colon is 6.97 µM; with DU-145 prostate, 9.81 µM; with HL-60(TB) leukemia, 21.8 µM; with LOX IMVI melanoma it was 5.69 µM; with NCI-H23 lung it was 38.3 µM; in the assay with OVCAR-5 ovarian, over 100 µM. In addition, the GI50 was 5.39 µM with SF-268 CNS, 0.63 µM in the assay on SR leukemia, 25 µM in the assay on T-47D breast and 3.53 µM with UO-31 renal. For the same compound, the TGI in the assay with COLO 205 colon, in the assay on DU-145 prostate, in the assay on HL-60(TB) leukemia, with LOX IMVI melanoma, with NCI-H23 lung and in the assay on OVCAR-5 ovarian was over 100 µM throughout. In addition, the TGI is over 100 µM with SF-268 CNS, 22.3 µM in the assay with SR leukemia, over 100 µM in the assay on T-47D breast and 62.1 µM in the assay with UO-31 renal.
In the case of `Cn1cccc1-c1cc(-c2ccc(Br)cc2)nc(N)c1C#N`, the GI50 was over 100 µM in the assay on COLO 205 colon; over 100 µM in the assay on DU-145 prostate; 0.413 µM with HL-60(TB) leukemia; over 100 µM with LOX IMVI melanoma; over 100 µM in the assay on NCI-H23 lung; over 100 µM in the assay on OVCAR-5 ovarian. Moreover, the GI50 was over 100 µM with SF-268 CNS, 3.42 µM in the assay with SR leukemia, over 100 µM with T-47D breast and over 100 µM in the assay with UO-31 renal. Further, the TGI in the assay on COLO 205 colon, in the assay on DU-145 prostate, in the assay with HL-60(TB) leukemia, with LOX IMVI melanoma, in the assay on NCI-H23 lung and in the assay with OVCAR-5 ovarian was over 100 µM throughout. Besides, the TGI in the assay on SF-268 CNS is over 100 µM; in the assay with SR leukemia, 20.4 µM; with T-47D breast, over 100 µM; in the assay on UO-31 renal it was over 100 µM.
Regarding `CC(O)CN(CCN(CC(C)O)CC(C)O)CC(C)O.O=[N+]([O-])O.[Cu+2]` (stereo not given), the GI50 in the assay with COLO 205 colon, with DU-145 prostate, with HL-60(TB) leukemia, in the assay with LOX IMVI melanoma, in the assay on NCI-H23 lung and in the assay with OVCAR-5 ovarian was over 100 µM throughout. The GI50 with SF-268 CNS, in the assay with SR leukemia, with T-47D breast and in the assay with UO-31 renal was over 100 µM each time. In addition, the TGI in the assay with COLO 205 colon, with DU-145 prostate, with HL-60(TB) leukemia, with LOX IMVI melanoma, in the assay with NCI-H23 lung and in the assay on OVCAR-5 ovarian was over 100 µM each time. For the same compound, the TGI in the assay with SF-268 CNS, with SR leukemia, with T-47D breast and in the assay on UO-31 renal was over 100 µM in each case.
As for `O=C(CC1C(=O)Nc2ccccc2S1=O)Nc1cccc(Cl)c1` (stereo not given), the TGI in the assay with COLO 205 colon is over 66.1 µM; with DU-145 prostate, over 100 µM; with HL-60(TB) leukemia, over 64.2 µM; with LOX IMVI melanoma, over 100 µM; in the assay with NCI-H23 lung it was over 100 µM; in the assay on OVCAR-5 ovarian, over 100 µM. Also, the TGI is over 100 µM in the assay with SF-268 CNS, 22.1 µM with SR leukemia, 42.7 µM in the assay with T-47D breast and over 89.8 µM in the assay on UO-31 renal.
As for `NC(=O)NC(=O)CI`, the GI50 in the assay on COLO 205 colon is 1.91 µM; in the assay with DU-145 prostate, 17.7 µM; in the assay on HL-60(TB) leukemia it was 1.94 µM; with LOX IMVI melanoma it was 1.08 µM; in the assay with NCI-H23 lung it was 5.75 µM; in the assay with OVCAR-5 ovarian, 11.3 µM. The GI50 with SF-268 CNS is 16.2 µM; with SR leukemia, 2.52 µM; with T-47D breast, 1.72 µM; in the assay on UO-31 renal, 1.68 µM. Also, the TGI in the assay on COLO 205 colon turned out to be 3.73 µM; in the assay on DU-145 prostate, 32.3 µM; with HL-60(TB) leukemia, 4.02 µM; in the assay with LOX IMVI melanoma, 2.71 µM; in the assay on NCI-H23 lung, 21 µM; with OVCAR-5 ovarian it was 26.1 µM. In addition, the TGI was found to be 36.4 µM in the assay on SF-268 CNS, 7.69 µM in the assay on SR leukemia, 3.9 µM in the assay with T-47D breast and 3.19 µM in the assay on UO-31 renal.
On to `O=Cc1ccc(C(F)(F)F)cc1.[C-]#[O+].[C-]#[O+].[C-]#[O+].[Cr]`, for which the GI50 in the assay with COLO 205 colon is 27.4 µM; with DU-145 prostate, 20.9 µM; with HL-60(TB) leukemia it was 16.1 µM; with LOX IMVI melanoma it was 26.2 µM; with NCI-H23 lung, 37.1 µM; with OVCAR-5 ovarian, 53.9 µM. The GI50 is 21 µM with SF-268 CNS, 15.1 µM with SR leukemia, 14.4 µM in the assay on T-47D breast and 16 µM in the assay on UO-31 renal. The TGI was over 100 µM with COLO 205 colon; 94.9 µM with DU-145 prostate; 92.6 µM in the assay with HL-60(TB) leukemia; over 100 µM in the assay with LOX IMVI melanoma; over 100 µM in the assay with NCI-H23 lung; over 100 µM with OVCAR-5 ovarian. The TGI in the assay on SF-268 CNS is over 100 µM; in the assay on SR leukemia it was 46.6 µM; in the assay with T-47D breast it was 62.4 µM; with UO-31 renal, 48.5 µM.
